Measurements as given in US12448399B2, “Cereblon-based KRAS degrading PROTACs and uses related thereto” (Arvinas Operations, Inc., priority 2023, dated 2025).

Target: T1, KRas-G12D (Homo sapiens, UniProt P01116, G12D)
T1 construct: insert the HiBiT tag onto the N-terminus of one or more of the endogenous KRas alleles; host or cells: AsPC-1 HiBiT-KRasG12D knock-in clone (one tagged allele, two untagged KRasG12D alleles)
Assay: HiBiT Degradation Assay (G12D), AsPC-1 HiBiT-KRasG12D cells, 24 hr
Assay type: cell-based
Details: for Dmax: ASPC1, AsPC-1 cells, maximum degradation observed; for DC50: AsPC-1 cells
Outline: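 AsPC-1 cells with CRISPR N-terminal HiBiT knock-in on one endogenous KRasG12D allele, treated 24 hr at 37° C with compound titrations in 0.5% DMSO. Lytic HiBiT luminescence normalized to DMSO, fitted to a 4-parameter model for DC50 and Dmax. Parallel alamar blue (4 hr) checked viability.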

T1 sequence (P01116 1-188 isoform P01116-2 G12D): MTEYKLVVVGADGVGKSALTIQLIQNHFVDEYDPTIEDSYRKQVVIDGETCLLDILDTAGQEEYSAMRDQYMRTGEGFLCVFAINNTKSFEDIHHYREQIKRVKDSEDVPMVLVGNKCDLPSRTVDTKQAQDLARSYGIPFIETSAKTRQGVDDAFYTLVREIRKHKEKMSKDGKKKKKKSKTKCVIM

Row | SMILES | Dmax | DC50
1 | C#Cc1c(F)ccc2cc(O)cc(-c3ncc4c(N5CC6CCC(C5)N6)nc(OCCN5CCC6(CC5)CCN(CC5CCN(c7cccc8c7n(C)c(=O)n8C7CCC(=O)NC7=O)CC5)CC6)nc4c3F)c12 (stereo not shown) [Compound 83, 3-(4-{4-[(9-{2-[(4-{3,8-diazabicyclo[3.2.1]octan-3-yl}-7-(8-ethynyl-7-fluoro-3-hydroxynaphthalen-1-yl)-8-fluoropyrido[4,3-d]pyrimidin-2-yl)oxy]ethyl}-3,9-diazaspiro[5.5]undecan-3-yl)methyl]piperidin-1-yl}-3-methyl-2-oxo-2,3-dihydro-1H-1,3-benzodiazol-1-yl)piperidine-2,6-dione] | > 70% | < 5.1 µM
2 | C#Cc1c(F)ccc2cc(O)cc(-c3ncc4c(N5CC6CCC(C5)N6)nc(OC[C@H](C)N5CCC(CC6CCN(CC7CCN(c8ccc9c(c8)n(C(C)C)c(=O)n9C8CCC(=O)NC8=O)CC7)CC6)CC5)nc4c3F)c12 (stereo partly drawn) [Compound 195, 3-[5-[4-[[4-[[1-[(1S)-2-[4-(3,8-diazabicyclo[3.2.1]octan-3-yl)-7-(8-ethynyl-7-fluoro-3-hydroxy-1-naphthyl)-8-fluoro-pyrido[4,3-d]pyrimidin-2-yl]oxy-1-methyl-ethyl]-4-piperidyl]methyl]-1-piperidyl]methyl]-1-piperidyl]-3-isopropyl-2-oxo-benzimidazol-1-yl]piperidine-2,6-dione] | > 70% | < 5.1 µM
3 | C#Cc1c(F)ccc2cc(O)cc(-c3ncc4c(C5CC6CCC(C5)N6)nc(OCCN5CCC(CC6CCN(CC7CCN(c8ccc9c(c8)CN(C8CCC(=O)NC8=O)C9=O)CC7)CC6)CC5)nc4c3F)c12 (stereo not shown) [Compound 68] | > 70% | < 5.1 µM
4 | CCc1cccc2cc(O)cc(-c3ncc4c(N5CC6CCC(C5)N6)nc(OCCN5CCC(CC6CCN(c7cccc8c7CN(C7CCC(=O)NC7=O)C8=O)CC6)CC5)nc4c3F)c12 (stereo not shown) [Compound 56, 3-[4-[4-[[1-[2-[4-(3,8-diazabicyclo[3.2.1]octan-3-yl)-7-(8-ethyl-3-hydroxy-1-naphthyl)-8-fluoro-pyrido[4,3-d]pyrimidin-2-yl]oxyethyl]-4-piperidyl]methyl]-1-piperidyl]-1-oxo-isoindolin-2-yl]piperidine-2,6-dione] | – | 0.25 to 1 µM
5 | CCc1cccc2cc(O)cc(-c3ncc4c(N5CC6CCC(C5)N6C)nc(OC[C@]56CCCN5[C@@H](COC(=O)N5CCN(c7cccc8c7CN(C7CCC(=O)NC7=O)C8=O)CC5)CC6)nc4c3F)c12 (stereo partly drawn) [Compound 51, [(3R,8R)-8-[[7-(8-ethyl-3-hydroxy-1-naphthyl)-8-fluoro-4-(8-methyl-3,8-diazabicyclo[3.2.1]octan-3-yl)pyrido[4,3-d]pyrimidin-2-yl]oxymethyl]-1,2,3,5,6,7-hexahydropyrrolizin-3-yl]methyl4-[2-(2,6-dioxo-3-piperidyl)-1-oxo-isoindolin-4-yl]piperazine-1-carboxylate] | – | > 1 µM
6 | C#Cc1c(F)ccc2cc(O)cc(-c3cnc4c(N5CC6CCC(C5)N6)nc(OCCN5CCC(CC6CCN(CC7CCN(c8ccc9c(c8F)CN(C8CCC(=O)NC8=O)C9=O)CC7)CC6)CC5)nc4c3)c12 (stereo not shown) [Compound 107] | – | > 1 µM
7 | CCc1cccc2cc(O)cc(-c3ncc4c(N5CC6CCC(C5)N6)nc(OC[C@@H]5C[C@@H](OC6CCN(c7ccc8c(c7)CN(C7CCC(=O)NC7=O)C8=O)CC6)CN5C)nc4c3F)c12 (stereo partly shown) [Compound 77] | > 70% | < 5.1 µM
8 | C#Cc1c(F)ccc2cc(O)cc(-c3ncc4c(N5CC6CCC(C5)N6)nc(OCCN5CCN(CC6CCN(CC7CCN(c8ccc9c(c8)n(C)c(=O)n9C8CCC(=O)NC8=O)CC7)CC6)CC5(C)C)nc4c3F)c12 (stereo not shown) [Compound 162, 3-{5-[4-({4-[(4-{2-[(4-{3,8-diazabicyclo[3.2.1]octan-3-yl}-7-(8-ethynyl-7-fluoro-3-hydroxynaphthalen-1-yl)-8-fluoropyrido[4,3-d]pyrimidin-2-yl)oxy]ethyl}-3,3-dimethylpiperazin-1-yl)methyl]piperidin-1-yl}methyl)piperidin-1-yl]-3-methyl-2-oxo-2,3-dihydro-1H-1,3-benzodiazol-1-yl}piperidine-2,6-dione] | > 70% | < 5.1 µM
9 | C#Cc1c(F)ccc2cc(O)cc(-c3ncc4c(N5CC6CCC(C5)N6)nc(OC[C@@H]5C[C@@H](OC6CCN(CC7CCN(c8ccc9c(c8F)n(C)c(=O)n9C8CCC(=O)NC8=O)CC7)CC6)CN5C)nc4c3F)c12 (stereo partly drawn) [Compound 213, 3-(5-{4-[(4-{[(3R,5S)-5-{[(4-{3,8-diazabicyclo[3.2.1]octan-3-yl}-7-(8-ethynyl-7-fluoro-3-hydroxynaphthalen-1-yl)-8-fluoropyrido[4,3-d]pyrimidin-2-yl)oxy]methyl}-1-methylpyrrolidin-3-yl]oxy}piperidin-1-yl)methyl]piperidin-1-yl}-4-fluoro-3-methyl-2-oxo-2,3-dihydro-1H-1,3-benzodiazol-1-yl)piperidine-2,6-dione] | > 70% | < 5.1 µM
10 | CCc1cccc2cc(O)cc(-c3ncc4c(N5CC6CCC(C5)N6)nc(OC[C@@H]5C[C@@H](OC6CCN(CC7CCN(c8cccc9c8CN(C8CCC(=O)NC8=O)C9=O)CC7)CC6)CN5C)nc4c3F)c12 (stereo partly drawn) [Compound 139, 3-(4-{4-[(4-{[(3R,5S)-5-{[(4-{3,8-diazabicyclo[3.2.1]octan-3-yl}-7-(8-ethyl-3-hydroxynaphthalen-1-yl)-8-fluoropyrido[4,3-d]pyrimidin-2-yl)oxy]methyl}-1-methylpyrrolidin-3-yl]oxy}piperidin-1-yl)methyl]piperidin-1-yl}-1-oxo-2,3-dihydro-1H-isoindol-2-yl)piperidine-2,6-dione] | > 70% | < 5.1 µM
11 | C#Cc1c(F)ccc2cc(O)cc(-c3ncc4c(N5CC6CCC(C5)N6)nc(OCCN5CCC(CC6CCN(CC7CCN(c8cc(F)c9c(c8F)n(C)c(=O)n9C8CCC(=O)NC8=O)CC7)CC6)CC5)nc4c3F)c12 (stereo not shown) [Compound 199, 3-{5-[4-({4-[(1-{2-[(4-{3,8-diazabicyclo[3.2.1]octan-3-yl}-7-(8-ethynyl-7-fluoro-3-hydroxynaphthalen-1-yl)-8-fluoropyrido[4,3-d]pyrimidin-2-yl)oxy]ethyl}piperidin-4-yl)methyl]piperidin-1-yl}methyl)piperidin-1-yl]-4,7-difluoro-3-methyl-2-oxo-2,3-dihydro-1H-1,3-benzodiazol-1-yl}piperidine-2,6-dione] | > 70% | < 5.1 µM
12 | C#Cc1c(F)ccc2cccc(-c3ncc4c(N5CC6CCC(C5)N6)nc(OC[C@]56CCCN5[C@H](CN5CCN(CC7CCN(c8ccc9c(c8)CN(C8CCC(=O)NC8=O)C9=O)CC7)CC5)CC6)nc4c3F)c12 (stereo partly shown) [Compound 143] | – | < 5.1 µM
13 | CCc1cccc2cc(O)cc(-c3ncc4c(N5CC6CCC(C5)N6C)nc(OCCN5CCC(CC6CCN(CC7CCN(c8cccc9c8CN(C8CCC(=O)NC8=O)C9=O)CC7)CC6)CC5)nc4c3F)c12 (stereo not shown) [Compound 42, 3-[4-[4-[[4-[[1-[2-[7-(8-ethyl-3-hydroxy-1-naphthyl)-8-fluoro-4-(8-methyl-3,8-diazabicyclo[3.2.1]octan-3-yl)pyrido[4,3-d]pyrimidin-2-yl]oxyethyl]-4-piperidyl]methyl]-1-piperidyl]methyl]-1-piperidyl]-1-oxo-isoindolin-2-yl] piperidine-2,6-dione] | – | > 1 µM
14 | C#Cc1c(F)ccc2cc(O)cc(-c3ncc4c(N5CC6CCC(C5)N6)nc(OCCN5CCC(C)(CC6CCN(CC7CCN(c8ccc9c(c8)n(C)c(=O)n9C8CCC(=O)NC8=O)CC7)CC6)CC5)nc4c3F)c12 (stereo not shown) [Compound 161, 3-{5-[4-({4-[(1-{2-[(4-{3,8-diazabicyclo[3.2.1]octan-3-yl}-7-(8-ethynyl-7-fluoro-3-hydroxynaphthalen-1-yl)-8-fluoropyrido[4,3-d]pyrimidin-2-yl)oxy]ethyl}-4-methylpiperidin-4-yl)methyl]piperidin-1-yl}methyl)piperidin-1-yl]-3-methyl-2-oxo-2,3-dihydro-1H-1,3-benzodiazol-1-yl}piperidine-2,6-dione] | > 70% | < 5.1 µM
15 | CCc1cccc2cc(O)cc(-c3ncc4c(N5CC6CCC(C5)N6)nc(OCCN5CCC(F)(CC6CCN(c7cccc8c7CN(C7CCC(=O)NC7=O)C8=O)CC6)CC5)nc4c3F)c12 (stereo not shown) [Compound 29] | – | 0.25 to 1 µM
16 | CCc1cccc2cc(O)cc(-c3ncc4c(N5CC6CCC(C5)N6)nc(OC[C@@]56CCCN5[C@H](COC(=O)N5CCN(c7ccc8c(c7)C(=O)N(C7CCC(=O)NC7=O)C8=O)CC5)CC6)nc4c3F)c12 (stereo partly drawn) [Compound 62, [(3S,8S)-8-[[4-(3,8-diazabicyclo[3.2.1]octan-3-yl)-7-(8-ethyl-3-hydroxy-1-naphthyl)-8-fluoro-pyrido[4,3-d]pyrimidin-2-yl]oxymethyl]-1,2,3,5,6,7-hexahydropyrrolizin-3-yl]methyl4-[2-(2,6-dioxo-3-piperidyl)-1,3-dioxo-isoindolin-5-yl]piperazine-1-carboxylate] | – | < 5.1 µM
17 | C#Cc1c(F)ccc2cc(O)cc(-c3ncc4c(N5CC6CCC(C5)N6)nc(OC[C@@H](C)N5CCC(CC6CCN(CC7CCN(c8ccc9c(c8F)CN(C8CCC(=O)NC8=O)C9=O)CC7)CC6)CC5)nc4c3F)c12 (stereo partly drawn) [Compound 185, 3-[5-(4-{[4-({1-[(2R)-1-[(4-{3,8-diazabicyclo[3.2.1]octan-3-yl}-7-(8-ethynyl-7-fluoro-3-hydroxynaphthalen-1-yl)-8-fluoropyrido[4,3-d]pyrimidin-2-yl)oxy]propan-2-yl]piperidin-4-yl}methyl)piperidin-1-yl]methyl}piperidin-1-yl)-4-fluoro-1-oxo-2,3-dihydro-1H-isoindol-2-yl]piperidine-2,6-dione] | > 70% | < 5.1 µM
18 | C#Cc1c(F)ccc2cccc(-c3ncc4c(N5CC6CCC(C5)N6)nc(OC[C@@H]5C[C@@H](OC6CCN(CC7CCN(c8ccc9c(c8)CN(C8CCC(=O)NC8=O)C9=O)CC7)CC6)CN5C)nc4c3F)c12 (stereo partly shown) [Compound 144] | – | < 5.1 µM
